Laboratory results from ChEMBL document CHEMBL1909046, “DrugMatrix in vitro pharmacology data”.

Legend:
[1] = target: Beta-1 adrenergic receptor (Homo sapiens, UniProt P08588); test: DRUGMATRIX: Adrenergic beta1 radioligand binding (ligand: [125I] Cyanopindolol); assay type: cell membranes, CHO-K1, Membrane; settings: Not Active = under 50% inhibition at 10 µM
[2] = target: Tyrosine-protein kinase Lck (Homo sapiens, UniProt P06239); test: DRUGMATRIX: Protein Tyrosine Kinase, LCK enzyme inhibition (substrate: Poly(Glu:Tyr)); assay type: cell-based, Insect cells; settings: insect cells; Not Active = under 50% inhibition at 10 µM
Tyrosine-protein kinase Lck, sequence (P06239 whole entry): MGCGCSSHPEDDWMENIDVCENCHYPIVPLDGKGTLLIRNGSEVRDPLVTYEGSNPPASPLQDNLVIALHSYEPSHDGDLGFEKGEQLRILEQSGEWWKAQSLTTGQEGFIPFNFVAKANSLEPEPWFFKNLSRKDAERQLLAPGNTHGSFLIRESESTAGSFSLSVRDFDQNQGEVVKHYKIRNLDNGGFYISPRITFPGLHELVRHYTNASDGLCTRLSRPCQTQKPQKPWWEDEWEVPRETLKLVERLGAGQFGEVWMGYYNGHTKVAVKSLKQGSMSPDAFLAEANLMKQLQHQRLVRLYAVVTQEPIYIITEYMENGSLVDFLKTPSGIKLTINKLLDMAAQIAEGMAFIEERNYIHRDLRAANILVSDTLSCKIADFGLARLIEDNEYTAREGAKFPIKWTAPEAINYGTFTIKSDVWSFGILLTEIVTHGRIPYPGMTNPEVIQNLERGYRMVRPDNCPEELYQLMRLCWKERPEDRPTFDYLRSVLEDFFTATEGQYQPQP

[3] = target: Melanocortin receptor 3 (Homo sapiens, UniProt P41968); assay type: cell membranes, Membrane; settings: hek293; note: in other assays of this panel Not Active means under 50% inhibition at 10 µM
Melanocortin receptor 3, sequence (P41968 whole entry): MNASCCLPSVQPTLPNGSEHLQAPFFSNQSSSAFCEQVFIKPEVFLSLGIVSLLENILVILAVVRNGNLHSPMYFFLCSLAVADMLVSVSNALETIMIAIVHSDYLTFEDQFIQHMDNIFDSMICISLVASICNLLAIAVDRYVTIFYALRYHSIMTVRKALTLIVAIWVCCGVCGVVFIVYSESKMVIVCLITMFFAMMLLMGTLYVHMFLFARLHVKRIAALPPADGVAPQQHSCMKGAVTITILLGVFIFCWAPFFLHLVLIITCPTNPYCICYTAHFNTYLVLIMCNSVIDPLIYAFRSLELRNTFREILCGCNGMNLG

[4] = target: T1, Adenosine receptor A3 (Homo sapiens, UniProt P0DMS8); assay type: cell membranes, CHO-K1, Membrane; settings: cho-k1;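 note: radioligand binding assay with AB-MECA serving as the labeled ligand; in other assays of this panel Not Active means under 50% inhibition at 10 µM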
T1 sequence (P0DMS8 whole entry): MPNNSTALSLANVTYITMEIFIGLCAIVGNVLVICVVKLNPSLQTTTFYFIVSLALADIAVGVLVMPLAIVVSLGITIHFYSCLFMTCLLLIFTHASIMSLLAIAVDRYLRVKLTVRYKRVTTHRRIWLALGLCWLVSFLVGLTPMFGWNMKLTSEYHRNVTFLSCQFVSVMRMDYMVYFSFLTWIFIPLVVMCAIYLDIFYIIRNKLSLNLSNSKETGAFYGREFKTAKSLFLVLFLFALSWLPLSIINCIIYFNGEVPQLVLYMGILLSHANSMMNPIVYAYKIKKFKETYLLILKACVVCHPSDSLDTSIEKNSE

[5] = target: Beta-3 adrenergic receptor (Homo sapiens, UniProt P13945); test: DRUGMATRIX: Adrenergic beta3 radioligand binding (ligand: [125I] Cyanopindolol); assay type: cell membranes, Membrane; settings: hek293; Not Active = under 50% inhibition at 10 µM
Beta-3 adrenergic receptor, sequence (P13945 whole entry): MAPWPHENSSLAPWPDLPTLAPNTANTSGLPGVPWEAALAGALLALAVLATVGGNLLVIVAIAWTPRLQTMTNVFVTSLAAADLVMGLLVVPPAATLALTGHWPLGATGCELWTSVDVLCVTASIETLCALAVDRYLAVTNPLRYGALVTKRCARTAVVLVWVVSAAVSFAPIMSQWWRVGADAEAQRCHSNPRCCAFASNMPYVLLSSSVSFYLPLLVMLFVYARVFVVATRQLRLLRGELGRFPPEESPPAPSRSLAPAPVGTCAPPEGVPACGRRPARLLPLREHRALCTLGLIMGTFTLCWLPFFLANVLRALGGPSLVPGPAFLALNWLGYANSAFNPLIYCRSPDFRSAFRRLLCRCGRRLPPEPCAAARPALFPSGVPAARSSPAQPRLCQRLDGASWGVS

[6] = DRUGMATRIX: ATPase, Na+/K+ enzyme inhibition (substrate: ATP); assay type: tissue-based, Sus scrofa, Heart; settings: Not Active = under 50% inhibition at 10 µM
[7] = DRUGMATRIX: Calcium Channel Type L, Phenylalkylamine radioligand binding (ligand: [3H] (-)-Desmethoxyverapamil (D-888)); assay type: cell membranes, Rattus norvegicus, Wistar, Brain, Membrane; settings: Not Active = under 50% inhibition at 10 µM
[8] = target: T2, Vasoactive intestinal polypeptide receptor 1 (Homo sapiens, UniProt P32241); assay type: cell membranes, Membrane; settings: ht-29; note: in other assays of this panel Not Active means under 50% inhibition at 10 µM
T2 sequence (P32241 whole entry): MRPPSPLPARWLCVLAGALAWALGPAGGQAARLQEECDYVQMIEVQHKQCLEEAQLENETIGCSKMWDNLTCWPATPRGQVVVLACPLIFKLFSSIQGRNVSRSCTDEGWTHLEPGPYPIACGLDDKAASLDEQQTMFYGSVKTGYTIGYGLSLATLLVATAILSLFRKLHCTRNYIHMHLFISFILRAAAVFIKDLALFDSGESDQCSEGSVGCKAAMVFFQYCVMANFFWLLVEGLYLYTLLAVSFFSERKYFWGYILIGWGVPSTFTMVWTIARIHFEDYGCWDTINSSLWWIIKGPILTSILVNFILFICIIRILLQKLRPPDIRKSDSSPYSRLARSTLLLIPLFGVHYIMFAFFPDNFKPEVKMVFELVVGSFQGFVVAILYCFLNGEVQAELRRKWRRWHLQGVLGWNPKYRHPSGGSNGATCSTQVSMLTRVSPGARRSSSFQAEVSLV

[9] = target: Sodium-dependent dopamine transporter (Homo sapiens, UniProt Q01959); test: DRUGMATRIX: Dopamine Transporter radioligand binding (ligand: [125I] RTI-55); assay type: cell membranes, CHO-K1, Membrane; settings: Not Active = under 50% inhibition at 10 µM; for Ki: read-out: Ki
Sodium-dependent dopamine transporter, sequence (Q01959 whole entry): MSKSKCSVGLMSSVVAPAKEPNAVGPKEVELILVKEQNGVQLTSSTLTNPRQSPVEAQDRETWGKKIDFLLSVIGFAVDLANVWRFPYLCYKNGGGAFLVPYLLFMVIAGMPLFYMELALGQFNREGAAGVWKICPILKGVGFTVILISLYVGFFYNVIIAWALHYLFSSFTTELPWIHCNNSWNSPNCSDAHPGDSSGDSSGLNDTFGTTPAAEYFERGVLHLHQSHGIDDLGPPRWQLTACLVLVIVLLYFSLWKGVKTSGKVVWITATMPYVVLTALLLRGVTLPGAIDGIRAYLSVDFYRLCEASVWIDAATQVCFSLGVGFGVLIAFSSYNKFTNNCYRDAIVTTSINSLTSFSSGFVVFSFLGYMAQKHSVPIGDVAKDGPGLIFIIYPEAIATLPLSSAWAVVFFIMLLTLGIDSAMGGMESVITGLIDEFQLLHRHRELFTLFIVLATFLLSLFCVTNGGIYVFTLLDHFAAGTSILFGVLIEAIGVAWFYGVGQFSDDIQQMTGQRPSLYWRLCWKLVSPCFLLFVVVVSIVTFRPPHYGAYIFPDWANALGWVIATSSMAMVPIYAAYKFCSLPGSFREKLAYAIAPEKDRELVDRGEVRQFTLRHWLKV

Beta-1 adrenergic receptor, sequence (P08588 whole entry): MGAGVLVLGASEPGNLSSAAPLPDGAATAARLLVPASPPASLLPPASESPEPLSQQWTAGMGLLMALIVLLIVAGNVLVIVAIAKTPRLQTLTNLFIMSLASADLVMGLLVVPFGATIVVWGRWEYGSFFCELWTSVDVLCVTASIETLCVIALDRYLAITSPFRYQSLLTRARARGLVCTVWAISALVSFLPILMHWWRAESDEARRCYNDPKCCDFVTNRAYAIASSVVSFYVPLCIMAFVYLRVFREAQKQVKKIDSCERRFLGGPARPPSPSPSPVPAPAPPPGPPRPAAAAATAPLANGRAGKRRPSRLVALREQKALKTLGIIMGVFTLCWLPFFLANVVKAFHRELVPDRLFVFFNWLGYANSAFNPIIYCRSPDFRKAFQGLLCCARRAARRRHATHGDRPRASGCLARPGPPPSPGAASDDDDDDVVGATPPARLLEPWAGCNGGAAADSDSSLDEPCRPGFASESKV

Compound	IC50 ([1]; cho-k1)	IC50 [2]	IC50 [3]	IC50 [4]	IC50 [5]	IC50 [6]	Ki [6]	IC50 [7]	Ki [7]	IC50 [8]	IC50 ([9]; cho-k1)	IC50 ([9]; read-out: IC50)	Ki [9]	IC50 ([7]; read-out: IC50)	Ki ([7]; read-out: Ki)	IC50 ([1]; read-out: IC50)	Ki ([1]; read-out: Ki)
Cc1cc(C)nc(NS(=O)(=O)c2ccc(N)cc2)n1 [SULFAMETHAZINE]	Not Active	Not Active	Not Active	Not Active	Not Active	Not Active	Not Active	Not Active	Not Active	Not Active	Not Active						
CN1CCC(=C2c3ccccc3C=Cc3ccccc32)CC1 [CYPROHEPTADINE]	Not Active	Not Active	Not Active	Not Active	Not Active					Not Active	Not Active						
CNC(=C[N+](=O)[O-])NCCSCc1ccc(CN(C)C)o1 [RANITIDINE]	Not Active	Not Active	Not Active	Not Active	Not Active	Not Active	Not Active	Not Active	Not Active	Not Active	Not Active						
CC(=O)N1CCN(c2ccc(OCC3COC(Cn4ccnc4)(c4ccc(Cl)cc4Cl)O3)cc2)CC1 (stereo not given) [KETOCONAZOLE]	Not Active	Not Active	Not Active	Not Active	Not Active	Not Active	Not Active	Not Active	Not Active	Not Active		23.5 µM	18.7 µM				
CC(C)CC(N(C)C)C1(c2ccc(Cl)cc2)CCC1 (stereo not given) [SIBUTRAMINE]	Not Active	Not Active	Not Active	Not Active	Not Active	Not Active	Not Active			Not Active		0.632 µM	0.502 µM	2.72 µM	2.65 µM		
Cc1onc(-c2ccccc2)c1-c1ccc(S(N)(=O)=O)cc1 [VALDECOXIB]	Not Active	Not Active	Not Active	Not Active	Not Active	Not Active	Not Active	Not Active	Not Active	Not Active	Not Active						
CC/C(=C(/CC)c1ccc(O)cc1)c1ccc(O)cc1 [DIETHYLSTILBESTROL]		Not Active	Not Active		Not Active					Not Active						22.1 µM	12.8 µM
C[C@]1(Cn2ccnn2)[C@H](C(=O)O)N2C(=O)C[C@H]2S1(=O)=O [TAZOBACTAM]	Not Active	Not Active	Not Active	Not Active	Not Active	Not Active	Not Active	Not Active	Not Active	Not Active	Not Active						
COCCOC(=O)C1=C(C)NC(C)=C(C(=O)OC(C)C)C1c1cccc([N+](=O)[O-])c1 (stereo not given) [NIMODIPINE]	Not Active	Not Active	Not Active	Not Active	Not Active	Not Active	Not Active	Not Active	Not Active	Not Active	Not Active						
Cc1cccc(Nc2ccncc2S(=O)(=O)NC(=O)NC(C)C)c1 [TORSEMIDE]	Not Active	Not Active	Not Active	Not Active	Not Active	Not Active	Not Active	Not Active	Not Active	Not Active	Not Active						
[Cl-].[Cl-].[Zn+2] [ZINC CHLORIDE]	Not Active	Not Active	Not Active	Not Active	Not Active	Not Active	Not Active	Not Active	Not Active	Not Active	Not Active						
C=CCN1CC[C@]23c4c5ccc(O)c4O[C@H]2C(=O)CC[C@@]3(O)[C@H]1C5 [NALOXONE]	Not Active	Not Active	Not Active	Not Active	Not Active					Not Active	Not Active						
CN1C(C(=O)Nc2ccccn2)=C(O)c2sccc2S1(=O)=O [TENOXICAM]	Not Active	Not Active	Not Active	Not Active	Not Active	Not Active	Not Active	Not Active	Not Active	Not Active	Not Active						
COc1cc(NS(=O)(=O)c2ccc(N)cc2)nc(OC)n1 [SULFADIMETHOXINE]	Not Active	Not Active	Not Active	Not Active	Not Active	Not Active	Not Active	Not Active	Not Active	Not Active	Not Active						
CC(C)NCC(O)COc1cccc2ccccc12 (stereo not given) [PROPRANOLOL]		Not Active	Not Active	Not Active						Not Active							
CC(C)c1nc(CN(C)C(=O)N[C@H](C(=O)N[C@@H](Cc2ccccc2)C[C@H](O)[C@H](Cc2ccccc2)NC(=O)OCc2cncs2)C(C)C)cs1 [RITONAVIR]	Not Active	Not Active	Not Active	Not Active	Not Active	Not Active	Not Active			Not Active	Not Active						
Clc1ccc2c(c1)C(N1CCNCC1)=Nc1ccccc1O2 [AMOXAPINE]	Not Active	Not Active	Not Active	Not Active	Not Active					Not Active	Not Active						
CC(C)(C)c1ccc(C(O)CCCN2CCC(C(O)(c3ccccc3)c3ccccc3)CC2)cc1 (stereo not given) [TERFENADINE]	Not Active	Not Active	Not Active	Not Active	Not Active	Not Active	Not Active			Not Active				0.624 µM	0.607 µM		
O=C(c1ccc(OCCN2CCCCC2)cc1)c1c(-c2ccc(O)cc2)sc2cc(O)ccc12 [RALOXIFENE]	Not Active	Not Active	Not Active	Not Active	Not Active	Not Active	Not Active			Not Active				0.148 µM	0.144 µM		
COc1cc2c(c(OC)c1OC)-c1ccc(OC)c(=O)cc1[C@@H](NC(C)=O)CC2 [COLCHICINE]	Not Active	Not Active	Not Active	Not Active	Not Active					Not Active	Not Active						
C[C@@H](N)[C@H]1CC[C@H](C(=O)Nc2ccncc2)CC1 [Y-27632]	Not Active		Not Active	Not Active	Not Active	Not Active	Not Active	Not Active	Not Active	Not Active	Not Active						
